These results are taken from patent US9150546B2, “Triazine derivative and pharmaceutical composition comprising the same” (SHIONOGI & CO., LTD., priority 2009, dated 2015).

By IC50 is commonly meant the point on the concentration scale where inhibition reaches its midpoint. The low end stands for greater potency, the high end for weaker potency.

SMILES strings stand for the structures.

human P2X3 receptor, sequence (P56373 whole entry): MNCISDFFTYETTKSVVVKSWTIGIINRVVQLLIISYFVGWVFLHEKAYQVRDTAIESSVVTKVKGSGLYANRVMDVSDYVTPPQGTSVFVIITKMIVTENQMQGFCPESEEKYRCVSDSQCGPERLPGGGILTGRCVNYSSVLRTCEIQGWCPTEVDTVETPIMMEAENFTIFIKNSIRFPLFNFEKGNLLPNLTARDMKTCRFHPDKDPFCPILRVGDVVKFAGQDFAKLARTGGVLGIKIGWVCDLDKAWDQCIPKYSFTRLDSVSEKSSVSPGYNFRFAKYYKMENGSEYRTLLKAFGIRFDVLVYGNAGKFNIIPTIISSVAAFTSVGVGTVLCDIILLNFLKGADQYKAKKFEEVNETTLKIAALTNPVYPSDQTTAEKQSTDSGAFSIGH

The test addresses human P2X3 receptor (Homo sapiens (Human), UniProt P56373). Kind of test: P2X3 receptor inhibition, ATP-evoked Fluo-3 fluorescence (FDSS 3000). The test is classed as cell-based. To be noted: C6BU-1 cell transfected with human P2X3 receptor gene.
For the molecule `CC(C)n1c(=O)nc(Nc2cccc(C(F)(F)F)c2)n(Cc2ccc(F)cc2)c1=O` [I-126], the 50% inhibitory concentration (IC50) is 689 nM.
The figure for `COC(=O)C(C)(C)Cn1c(=O)[nH]/c(=N\c2ccc(O)c(Cl)c2)n(Cc2ccc(Cl)cc2)c1=O` [I-426] is 211 nM; for `O=c1nc(Nc2ccc(OC(F)(F)F)cc2)n(Cc2ccc(Cl)cc2)c(=O)n1CCO` [I-383] it is 532 nM; for `CSc1cccc(/N=c2\[nH]c(=O)n(CC(C)(C)C(=O)O)c(=O)n2Cc2ccc(Cl)cc2)c1` [I-510] it is 98 nM.
As to `COC(=O)[C@H](C)Cn1c(=O)[nH]/c(=N\c2ccc(OC(C)C)cc2)n(Cc2ccc(Cl)cc2)c1=O` [I-479], the midpoint of inhibition, the IC50, lay at 7 nM.
Regarding `CSc1cccc(Nc2nc(=O)n(C(C)C)c(=O)n2Cc2ccc(C)cc2)c1` [I-118], the IC50 amounted to 231 nM.
Under `CC(C)Oc1ccc(/N=c2\[nH]c(=O)n(CC(C)(C)C(=O)O)c(=O)n2Cc2ccc(Cl)cc2)cc1Cl` [I-401] stands 7 nM.
`CCOc1ccc(/N=c2\[nH]c(=O)n(C[C@@H](C)C(=O)O)c(=O)n2Cc2ccc(Cl)cc2)cc1C` [I-485] came in with an IC50 of 198 nM.
Under `CC(C)Oc1ccc(/N=c2\[nH]c(=O)n(CCCC(=O)O)c(=O)n2Cc2ccc(Cl)cc2)cc1Cl` [I-500] stands 13 nM.
For `CC(C)Oc1ccc(/N=c2\[nH]c(=O)n(C[C@H](C)C(=O)O)c(=O)n2Cc2ccc(Cl)cc2)cc1Cl` [I-461], the half-inhibitory concentration (IC50) amounted to 9 nM.
Regarding `COC(=O)c1cccc(Cn2c(=O)[nH]/c(=N\c3ccc(OC(C)C)c(F)c3)n(Cc3ccc(Cl)cc3)c2=O)c1` [I-450], half-maximal inhibition (IC50) was put at 36 nM. This IC50 is about 4-fold higher than that of the molecule before.
The figure for `CC(C)Oc1ccc(Nc2nc(=O)n(CCCO)c(=O)n2Cc2ccc(Cl)cc2)cc1` [I-359] is 40 nM.
The molecule `CC(C)n1c(=O)nc(Nc2ccc(Oc3ccccc3)cc2)n(Cc2ccc(Cl)cn2)c1=O` [I-164] registered an IC50 of 860 nM.
The figure for `Cc1ccc(Cn2c(=O)n(CC(=O)NC(CO)CO)c(=O)[nH]/c2=N\c2ccc(OC(C)C)c(F)c2)cc1` [I-414] is 7 nM; for `CC(C)(Cn1c(=O)[nH]/c(=N\c2ccc(Cl)c(Cl)c2)n(Cc2ccc(Cl)cc2)c1=O)C(=O)O` [I-477] it is 56 nM.
For the molecule `CCOC(=O)CCn1c(=O)nc(Nc2ccc(OC(C)C)c(Cl)c2)n(Cc2ccc(Cl)cc2)c1=O` [I-354], the IC50 was 8 nM. Compared with the last molecule, the IC50 is about 7-fold lower.
Under `Cc1ccc(Cn2c(=O)n(C[C@H](C)C(=O)O)c(=O)[nH]/c2=N\c2ccc(OC(C)C)c(Cl)c2)cc1` [I-518] stands 7 nM; under `CC(C)Oc1ccc(Nc2nc(=O)n(C(C)C)c(=O)n2Cc2ccc(F)cc2)cc1C#N` [I-227], 970 nM; under `O=c1nc(Nc2ccc(Cl)c(Cl)c2)n(Cc2ccc(Cl)cc2)c(=O)n1CCO` [I-373], 185 nM.
Under `CC(C)Oc1ccc(/N=c2\[nH]c(=O)n(CC(C)(C)C(=O)O)c(=O)n2CC2CCCCC2)cc1Cl` [I-551] stands 34 nM; under `CCCn1c(=O)nc(Nc2ccc(OC(C)C)c(F)c2)n(Cc2ccccc2)c1=O` [I-349], 113 nM; under `Cc1cc2cc(/N=c3\[nH]c(=O)n(CC(C)(C)C(=O)O)c(=O)n3Cc3ccc(Cl)cc3)ccc2o1` [I-491], 27 nM.
As for `CC(C)Oc1ccc(Nc2nc(=O)n(C(C)C)c(=O)n2Cc2ccc(F)cc2)cc1C(F)(F)F` [I-204], half-maximal inhibition (IC50) was put at 558 nM.
The figure for `Cc1ccc(Cn2c(=O)n(CCC(=O)O)c(=O)[nH]/c2=N\c2ccc(OC(C)C)c(F)c2)cc1` [I-411] is 61 nM; for `O=c1nc(Nc2ccc(OC(F)F)cc2)n(Cc2ccc(Cl)cc2)c(=O)n1CC(CO)CO` [I-370] it is 154 nM.
The figure for `O=c1nc(Nc2cccc(C(F)(F)F)c2)n(Cc2ccc(Cl)cc2)c(=O)n1CC(CO)CO` [I-367] is 40 nM.
For the molecule `CC(C)Oc1ccc(Nc2nc(=O)n(CCO)c(=O)n2Cc2ccc(F)c(F)c2)cc1F` [I-339], the IC50 was found to be 775 nM.
The figure for `CCOc1ccc(/N=c2\[nH]c(=O)n(CC(C)(C)C(=O)O)c(=O)n2Cc2ccc(Cl)cc2)cc1Cl` [I-446] is 20 nM; for `CC(C)Oc1ccc(Nc2nc(=O)n(CCCO)c(=O)n2Cc2ccc(Cl)cc2)cc1Cl` [I-362] it is 7 nM; for `CC(C)c1cccc(Nc2nc(=O)n(CCO)c(=O)n2Cc2ccc(Cl)cc2)c1` [I-378] it is 347 nM.
`Cc1cc(/N=c2\[nH]c(=O)[nH]c(=O)n2Cc2ccc(Cl)cc2)ccc1OC(C)C` [I-499] returned an IC50 of 137 nM.
The figure for `Cc1ccc(Cn2c(Nc3cccc(C(F)(F)F)c3)nc(=O)n(C(C)C)c2=O)cc1` [I-021] is 197 nM.
Under `CCCn1ccc2cc(/N=c3\[nH]c(=O)n(CC(C)(C)C(=O)O)c(=O)n3Cc3ccc(Cl)cc3)ccc21` [I-509] stands 652 nM; under `CC(C)n1c(=O)nc(Nc2ccc(C#N)cc2)n(Cc2ccc(Cl)cc2)c1=O` [I-372], 964 nM; under `CC(C)Oc1ccc(Nc2nc(=O)n(CCNC(=O)NCC(=O)O)c(=O)n2Cc2ccc(Cl)cc2)cc1F` [I-392], 38 nM.
The figure for `CC(C)Oc1ccc(/N=c2\[nH]c(=O)n(C(C)C(=O)O)c(=O)n2Cc2ccc(Cl)cc2)cc1F` (stereo not shown) [I-475] is 571 nM; for `CC(C)Oc1ccc(/N=c2\[nH]c(=O)n(C[C@@H](C)C(=O)O)c(=O)n2Cc2ccc(Cl)cc2)cc1Cl` [I-460] it is 16 nM.
In the case of `CC(C)Oc1ccc(Nc2nc(=O)n(CCO)c(=O)[nH]2)cc1F` [I-325], the IC50 is 665 nM.
For the molecule `Cc1ccc(Cn2c(=O)n(C[C@H](C)C(=O)O)c(=O)[nH]/c2=N\c2ccc(OC(C)C)c(F)c2)cc1` [I-517], half-maximal inhibition (IC50) required 15 nM.
The figure for `COC(=O)C(C)(C)Cn1c(=O)[nH]/c(=N\c2ccc(OC(C)C)nc2)n(Cc2ccc(Cl)cc2)c1=O` [I-473] is 583 nM; for `CC(C)Oc1ccc(/N=c2\[nH]c(OCC(=O)O)nc(=O)n2Cc2ccc(Cl)cc2)cc1Cl` [II-009] it is 34 nM.
The figure for `Cc1ccc(Cn2c(=O)n(CC(=O)N[C@@H](C)C(=O)O)c(=O)[nH]/c2=N\c2ccc(OC(C)C)c(F)c2)cc1` [I-418] is 200 nM.
Under `CC(C)Oc1ccc(/N=c2\[nH]c(OCC(C)(C)C(=O)O)nc(=O)n2Cc2ccc(Cl)cc2)cc1Cl` [II-010] stands 349 nM; under `CNC(=O)Cn1c(=O)nc(Nc2ccc(OC(C)C)c(F)c2)n(Cc2ccc(Cl)cc2)c1=O` [I-294], 40 nM; under `CC(C)(Cn1c(=O)[nH]/c(=N\c2cccc(OC(F)F)c2)n(Cc2ccc(Cl)cc2)c1=O)C(=O)O` [I-448], 388 nM.
Turning to `CCn1c(=O)nc(Nc2ccc(Oc3ccccc3)cc2)n(Cc2ccc(F)cc2)c1=O` [I-141], the IC50 was found to be 685 nM.
The figure for `COC(=O)C(C)(C)Cn1c(=O)[nH]/c(=N\c2ccc(OC(C)C)c(Cl)c2)n(CC2CCCCC2)c1=O` [I-547] is 11 nM; for `CC(C)Oc1ccc(Nc2nc(=O)n(CCC(=O)N(C)C)c(=O)n2Cc2ccc(Cl)cc2)cc1F` [I-297] it is 45 nM.
Under `COC(=O)C(C)(C)Cn1c(=O)[nH]/c(=N\c2ccc(OC(C)C)c(Cl)c2)n(CC2CCCCCC2)c1=O` [I-549] stands 19 nM; under `CCCCn1c(=O)nc(Nc2cccc(C(F)(F)F)c2)n(Cc2ccc(C)cc2)c1=O` [I-029], 595 nM; under `COCCn1c(=O)nc(Nc2ccc(OC(C)C)c(F)c2)n(Cc2ccc(Cl)cc2)c1=O` [I-280], 30 nM.
Under `CC(C)Oc1ccc(Nc2nc(=O)n(C(C)C)c(=O)n2Cc2ccc(Cl)cc2)cn1` [I-394] stands 435 nM.
